Consider one compound from paper PMC8442742 (Pain, 2021).

One series deals with DRG transcriptome. Description: RNA sequencing of DRG. The note with it: cisplatin alone vs controls, one cycle. It is filed as in vivo, mice.
In another series the test system is p-c-Jun in the DRGs. The series can be described thus: p-c-Jun in DRG after one treatment cycle. It is filed as in vivo, mice. Conditions: one cycle of cisplatin 2.3 mg/kg i.p. for 5 days.
Series [1] relates to C57Bl/6 mice. Description: Y maze spontaneous alternation test. The note with it: two cycles of cisplatin. It is filed as in vivo.
Series [2] concerns NCI-H69 human lung cancer xenograft. The series can be described thus: NCI-H69 lung cancer xenograft, tumor volume. It is filed as in vivo, BALB/c nude mice. The note with it: cisplatin 4 mg/kg i.p. every 4 days, 6 doses.
Another series relates to synaptosomes. The note with it: two cycles of cisplatin.
Series [3] relates to C57Bl/6 mice. The series can be described thus: Puzzle box test. It is filed as in vivo. The note with it: two cycles of cisplatin; cardboard plug, trials 8–11.
The test system of series [4] is intraepidermal nerve fibers. The series can be described thus: IENF density in hind paw skin. It is filed as in vivo, mice. The note with it: two cycles of cisplatin 2.3 mg/kg i.p.

Molecules are shown by their SMILES.

For `N.N.[Cl][Pt][Cl]` [cisplatin], the “number of genes with changed expression” value in the series with DRG transcriptome was 1337. Also, the “p-c-Jun in DRG” value with p-c-Jun in the DRGs is reported as “significantly, but modestly, induced p-c-Jun”. The “Y maze alternation rate” value in the series on C57Bl/6 mice [1] was “significant decrease in the alternation rate”. In addition, the tumor growth entry in series [2] is reported as “significantly reduced tumor growth”. Further, the “synaptosomal MRC and SRC” value in the series with synaptosomes was “reduced maximal respiratory capacity and spare respiratory capacity”. In the series on C57Bl/6 mice [3], the “time to enter the goal box with difficult obstacle” value is given as “required significantly more time to enter the goal box”. Also, the “IENF density in the hind paws” value in series [4] is on record as “reduced IENF density”.
